Test results taken from patent US9192559B2, “Compositions” (Givaudan SA, priority 2006, dated 2015).

How the values were obtained:
A. niger spores = assay: Activity against A. niger spores in skin cream Cremor basalis; assay type: cell-based, Aspergillus niger
Experimental: (§1) A preservative-free oil-in-water emulsion skin cream is used. Test samples of cream are made up to contain different amounts of diol compounds and/or benzaldehyde derivatives. The diol compound and the benzaldehyde derivatives is added to an aliquot of 10 g of the cream in 50 ml tubes in a concentration as shown in the table below. After addition of the preservative/preservative enhancer, the cream is thoroughly mixed to achieve a homogeneous distribution. The cream is then stored for 1-3 days to equilibrate at room temperature (in order to achieve a homogenous partitioning of compounds between oil and water phase).
(§2) For testing of sporicidal effect, to each sample 100 μl of a spore suspension of Aspergillus niger ATCC 16404 containing 3×10^7 spores/ml (prepared as described in example 1) is added.
(§3) After regular test intervals, samples of 1 g cream are removed and added to 20 ml of a neutralizer solution containing 0.2% lecithin, 2% Tween 80 and 0.5% NaCl. These dilutions are vigorously shaken for 10 min until the cream is dissolved, and then aliquots of this solution are spread plated on potato dextrose agar containing 0.2% Tween 80. After 48 h to 72 h the number of surviving colony forming units (and therefore surviving spores) are counted.
The example is performed as described in example 2 except for the following changes:
The preservative-free cosmetic cream for application to the human skin is Cremor basalis (commercially available from Fagron GmbH, Barsbüttel, Germany).

[1] = system: Aspergillus niger ATCC 16404 spores; assay: Sporicidal effect of test compounds in water; assay type: cell-based; settings: 0.1% test compound in water; for Sporicidal effect (reduction of spore counts), in words: 7 days
Experimental: Aspergillus niger ATCC 16404 spores are added to water to obtain a density of 3×10^5 spores/ml.
In order to prepare the spores, the test strain is grown for 5 days on potato dextrose agar at room temperature. The spores are harvested with a solution containing 0.1% Tween 80, peptone 0.1% and NaCl 0.85% and the spore concentration is adjusted to the density indicated above.
Test compounds are dissolved in dipropyleneglycol to a concentration of 20%.
These stock solutions are added to 10 ml aliquots of the spore suspension to obtain a final concentration of the test compounds of 0.1%. The sporicidal effect is shown by a reduction of spore counts after 7 days.
The reduction factor is determined as follows. Aliquots of the above prepared suspension of microorganisms (here: spore suspension prepared as described above) are plated on a suitable agar medium (see above) and the developing colonies are counted both for samples with test compound and for a negative probe (water). The count of the negative control is divided by the count of the test compound and thereby the reduction factor is determined. A negative control (water) accordingly has a reduction factor of 1 (no effect on the microorganism).

[2] = system: Aspergillus niger ATCC 16404 spores; assay: Sporicidal activity in a preservative-free oil-in-water emulsion skin cream; assay type: cell-based; settings: 0.1% 4-hydroxybenzaldehyde, 0% diol, listed as benzaldehyde derivative
Experimental: as §1, §2, §3
The count of the negative control is divided by the count of the probe and thereby the reduction factor is determined.

## CCCCCCC(O)CO (centres unmarked) [1,2-Octandiol, 1,2-octanediol]
A. niger spores; preservative 0.25%, no 4-HBA
  Reduction factor fungal spores, 7d: 2.2

## CC(CO)CO [2-Methyl-1,3-propandiol, 2-Methyl-1,3-propanediol]
A. niger spores; preservative 2%, no 4-HBA
  Reduction factor fungal spores, 7d: 3.3
A. niger spores; preservative 4%, no 4-HBA
  Reduction factor fungal spores, 7d: 25.9

## CCCCC(CC)COCC(O)CO (centres unmarked) [3-(2-ethyl-hexyloxy)-1,2-propandiol, 3-(2-ethylhexyloxy)propane-1,2-diol]
A. niger spores; preservative 0.25%, no 4-HBA
  Reduction factor fungal spores, 7d: 3.9
A. niger spores; preservative 0.5%, no 4-HBA
  Reduction factor fungal spores, 7d: 57.6

## O=Cc1ccc(O)cc1 [4-hydroxybenzaldehyde]
[1]
  Sporicidal effect (reduction of spore counts), in words: No significant reduction of spore counts
A. niger spores; 0.5% 4-hydroxybenzaldehyde on its own
  Reduction factor fungal spores, 7d: 57.6
A. niger spores; no added diol, 0.125% 4-HBA
  Reduction factor fungal spores, 7d: 5.5
[2]
  reduction factor 7d fungal spores: no sporicidal effect

## COc1ccc(C=O)cc1 [4-methoxy-benzaldehyde]
[1]
  Sporicidal effect (reduction of spore counts), in words: No significant reduction of spore counts

## C=CCCCCCCCCO [9-decenol]
[1]
  Sporicidal effect (reduction of spore counts), in words: significant sporicidal effect

## CC(C)c1ccc(CO)cc1 [Cuminic alcohol]
[1]; after 7 days
  Spores/ml: >1.2 × 10^5 Spores/ml
[1]; after 7 days, count of negative control / count of test compound
  Reduction factor: <2

## CC(CC=O)CCc1ccccc1 (centres unmarked) [Mefranal, 3-methyl-5-phenylpentanal]
[1]
  Sporicidal effect (reduction of spore counts), in words: significant sporicidal effect
